Laboratory results published in patent US8906908B2, “Hydroxybupropion analogues for treating drug dependence” (priority 2010, dated 2014).
Where two headings read alike, the source gives them in different places.

Assays:
[1] = biological target: T1, α4β4-nAChR (Homo sapiens, UniProt P30926+P43681); assay: 86Rb+ efflux nAChR functional assay, SH-EP1-hα4β4 cells; assay type: cell-based; details: EC80-EC90 carbamylcholine, parentheses = S.E.M. as multiplication/division factor, read-out: nAChR inhibition IC50 α4β4
T1 construct: expressed in transfected cells; host or cells: SH-EP1 epithelial cells (SH-EP1-hα4β4)
From the text: (§1) Cell Lines and Culture: Human embryonic kidney (HEK-293) cells stably expressing human DAT, NET or SERT were maintained as previously described in Eshleman, A. J.; Carmolli, M.; Cumbay, M.; Martens, C. R.; Neve, K. A.; Janowsky, A., J. Pharmacol. Exp. Ther. 1999, 289, (2), 877-885. Use was made of several human cell lines that naturally or heterologously express specific, functional, human nAChR subtypes. Cells of the TE671/RD line naturally expresses muscle-type nAChR (a1β1γδ- or α1*-nAChR), and SH-SY5Y neuroblastoma cells naturally expresses autonomic α3β4*-nAChRs (containing α3, β4, probably α5, and sometimes β2 subunits). Different clones of SH-EP1 epithelial cell lines have been engineered to heterologously express either α4β2-nAChR, which are thought to be the most abundant, high affinity nicotine-binding nAChR in mammalian brain, or α4β4-nAChR, another possible brain nAChR subtype (SH-EP1-hα4β2 or α4β4 cells, respectively). These cells were maintained as low passage number (1-26 from our frozen stocks) cultures to ensure stable expression of native or heterologously-expressed nAChR as previously described (see Lukas, R. J.; Fryer, J. D.; Eaton, J. B.; L., G. C., Some methods for studies of nicotinic acetylcholine receptor pharmacology, in Nicotinic receptors and the Nervous System, Levine, E. D., Ed. CRC Press: Boca Raton, 2002; pp 3-27, incorporated herein by reference in its entirety). Cells were passaged once weekly by splitting just-confluent cultures 1/300 (TE671/RD), 1/5 (SH-SY5Y), or 1/20 (transfected SH-EP1) in serum-supplemented medium to maintain log-phase growth.
(§2) After cells had adhered (generally overnight, but no sooner than 4 h later), the medium was removed and replaced with 250 μL per well of complete medium supplemented with ˜350,000 cpm of ^86Rb^+ (PerkinElmer Life and Analytical Sciences, Boston, Mass.) and counted at 40% efficiency using Cerenkov counting (TriCarb 1900 liquid scintillation analyzer[…]; PerkinElmer Life Sciences).
(§3) After at least 4 h and typically overnight, ^86Rb^+ efflux was measured using the “flip-plate” technique. See Lukas, R. J.; Fryer, J. D.; Eaton, J. B.; L., G. C., Some methods for studies of nicotinic acetylcholine receptor pharmacology, in Nicotinic receptors and the Nervous System, Levine, E. D., Ed. CRC Press: Boca Raton, 2002; pp 3-27, incorporated herein by reference in its entirety). Briefly, after aspiration of the bulk of ^86Rb^+ loading medium from each well of the “cell plate,” each well containing cells was rinsed 3× with 2 mL of fresh ^86Rb^+ efflux buffer (130 mM NaCl, 5.4 mM KCl, 2 mM CaCl2, 5 mM glucose, 50 mM HEPES, pH 7.4) to remove extracellular ^86Rb^+. Following removal of residual rinse buffer by aspiration, the flip-plate technique was used again to simultaneously introduce 1.5 mL of fresh efflux buffer containing drugs of choice at indicated final concentrations from a 24-well “efflux/drug plate” into the wells of the cell plate. After a 5 min incubation, the solution was “flipped” back into the efflux/drug plate, and any remaining buffer in the cell plate was removed by aspiration. Cells remaining in the cell plate were lysed and suspended by addition of 1.5 mL of 0.1 M NaOH, 0.1% sodium dodecyl sulfate to each well.
(§4) Similarly, the sum of ^86Rb^+ in cell plates and efflux/drug plates also determined the efficiency of ^86Rb^+ loading (the percentage of applied ^86Rb^+ actually loaded into cells).
(§5) Specific efflux was then taken as the difference in control samples between total and non-specific ^86Rb^+ efflux. Any intrinsic agonist activity of test drugs was ascertained using samples containing test drug only at different concentrations and was normalized, after subtraction of non-specific efflux, to specific efflux in test drug-free, control samples.

[2] = biological target: T2, NE transporters [h(NET)] (Homo sapiens, UniProt P23975); assay: Inhibition of [3H]norepinephrine uptake into HEK293 cells stably expressing hNET; assay type: cell-based; details: HEK293-hNET; mean ± standard error of three independent experiments; read-out: monoamine uptake inhibition IC50 [3H]NE
T2 construct: expressed in transfected cells; host or cells: HEK-293
From the text: as §1
(§6) See, for example, Damaj, M. I.; Carroll, F. I.; Eaton, J. B.; Navarro, H. A.; Blough, B. E.; Mirza, S.; Lukas, R. J.; Martin, B. R., Mol. Pharmacol. 2004, 66, (3), 675-682 and Eshleman, A. J.; Carmolli, M.; Cumbay, M.; Martens, C. R.; Neve, K. A.; Janowsky, A., J. Pharmacol. Exp. Ther. 1999, 289, (2), 877-885, both incorporated by reference herein in their entireties.

[3] = biological target: T3, muscle-type nAChR (α1β1γδ- or α1*-nAChR) (Homo sapiens, UniProt P02708+P07510+P11230+Q07001); assay: 86Rb+ efflux nAChR functional assay, TE671/RD cells; assay type: cell-based; details: nAChR inhibition IC50 α1*β1, EC80-EC90 carbamylcholine, parentheses = S.E.M. as multiplication/division factor
T3 construct: Cells of the TE671/RD line naturally expresses muscle-type nAChR; endogenous in cells; host or cells: TE671/RD cells
From the text: as §1, §2, §3, §4, §5

[4] = biological target: T4, 5HT transporters [(h)SERT] (Homo sapiens, UniProt P31645); assay: Inhibition of [3H]serotonin uptake into HEK293 cells stably expressing hSERT; assay type: cell-based
T4 construct: expressed in transfected cells; host or cells: HEK-293
From the text: as §1, §6

[5] = biological target: T5, α4β2-nAChR (Homo sapiens, UniProt P17787+P43681); assay: 86Rb+ efflux nAChR functional assay, SH-EP1-hα4β2 cells; assay type: cell-based; details: EC80-EC90 carbamylcholine; SH-EP1-hα4β2; parentheses = S.E.M. as multiplication/division factor; read-out: nAChR inhibition IC50 α4β2
T5 construct: expressed in transfected cells; host or cells: SH-EP1 epithelial cells (SH-EP1-hα4β2)
From the text: as §1, §2, §3, §4, §5

[6] = biological target: T6, human DA transporters [(h)DAT] (Homo sapiens, UniProt Q01959); assay: Inhibition of [3H]dopamine uptake into HEK293 cells stably expressing hDAT; assay type: cell-based
T6 construct: expressed in transfected cells; host or cells: HEK-293
From the text: as §1, §6

[7] = system: Male Institute of Cancer Research (ICR) mice; assay: Locomotor activity, antagonism of nicotine effect; assay type: in vivo; details: for AD50 Locomotion: pretreatment 15 min before nicotine […] s.c.
From the text: (§7) Animals: Male Institute of Cancer Research (ICR) mice (weighing 20-25 g) obtained from Harlan (Indianapolis, Ind.) were used throughout the study. Animals were housed in an Association for Assessment and Accreditation of Laboratory Animal Care-approved facility, were placed in groups of six, and had free access to food and water. Studies were approved by the Institutional Animal Care and Use Committee of Virginia Commonwealth University.
Locomotor Activity: Mice were placed into individual Omnitech photocell activity cages (28×16.5 cm; Omnitech Electronics, Columbus, Ohio) 5 min after subcutaneous administration of either 0.9% saline or nicotine (1.5 mg/kg). Interruptions of the photocell beams (two banks of eight cells each) were then recorded for the next 10 min. Data were expressed as the number of photocell interruptions.

[8] = system: Male Institute of Cancer Research (ICR) mice; assay: Hot-plate test, blockade of nicotine-induced antinociception; assay type: in vivo; details: pretreatment 15 min before nicotine 2.5 mg/kg s.c., tested 5 min after nicotine; for ED50: Mus musculus, read-out: AD50 Hot-plate
From the text: as §7
Hot-Plate Test: Mice were placed into a 10-cm wide glass cylinder on a hot plate (Thermojust Apparatus) maintained at 55° C. for assessment of pain responses mediated at supraspinal levels. To minimize tissue damage, a maximum exposure to the hot plate 40 s was imposed. Measures of control latencies (time until the animal jumped or licked its paws; typically 8-12 s) were done twice for stimuli applied at least 10 min apart for each mouse. Antinociceptive responses after test drug administrations were determined and calculated as the % MPE, where % MPE=[(test latency in s−control latency in s)/(40 s−control latency in s)×100]. Groups of 8 to 12 animals were used for each drug condition. […] The animals were then tested 5 min after administration of a subcutaneous dose of 2.5 mg/kg nicotine.

[9] = system: Male Institute of Cancer Research (ICR) mice; assay: Tail-flick test, blockade of nicotine-induced antinociception; assay type: in vivo; details: mice, pretreatment 15 min before nicotine 2.5 mg/kg s.c., tested 5 min after nicotine; for ED50: Mus musculus, 5 min, read-out: AD50 Tail-flick
From the text: as §7
Tail-Flick Test: Antinociception for pain mediated at the spinal level was assessed by the tail-flick method of D'Amour, F. E.; Smith, D. L., J. Pharmacol. Exp. Ther. 1941, 72, 74-79, incorporated herein by reference in its entirety. In brief, mice were lightly restrained while a radiant heat source was shone onto the upper portion of the tail. To minimize tissue damage, a maximum latency of 10 s was imposed. Latency to remove the tail from the heat source was recorded for each animal. […] Antinociceptive response was calculated as the percentage of maximum possible effect (% MPE), where % MPE=[(test control)/(10 control)]×100.

[10] = system: Male Institute of Cancer Research (ICR) mice; assay: Body temperature, antagonism of nicotine-induced hypothermia; assay type: in vivo; details: pretreatment 15 min before nicotine 2.5 mg/kg s.c., tested 30 min after nicotine
Method: as §7
Body Temperature: Rectal temperature was measured by a thermistor probe (inserted 24 mm) and digital thermometer (YSI Inc., Yellow Springs, Ohio). Readings were taken just before and 30 min after subcutaneous injection of either saline or 2.5 mg/kg nicotine. The difference in rectal temperature before and after treatment was calculated for each mouse. The ambient temperature of the laboratory varied from 21 to 24° C. from day to day. […] The animals were then tested 30 min after administration of a subcutaneous dose of 2.5 mg/kg nicotine.

T2 sequence (P23975 whole entry): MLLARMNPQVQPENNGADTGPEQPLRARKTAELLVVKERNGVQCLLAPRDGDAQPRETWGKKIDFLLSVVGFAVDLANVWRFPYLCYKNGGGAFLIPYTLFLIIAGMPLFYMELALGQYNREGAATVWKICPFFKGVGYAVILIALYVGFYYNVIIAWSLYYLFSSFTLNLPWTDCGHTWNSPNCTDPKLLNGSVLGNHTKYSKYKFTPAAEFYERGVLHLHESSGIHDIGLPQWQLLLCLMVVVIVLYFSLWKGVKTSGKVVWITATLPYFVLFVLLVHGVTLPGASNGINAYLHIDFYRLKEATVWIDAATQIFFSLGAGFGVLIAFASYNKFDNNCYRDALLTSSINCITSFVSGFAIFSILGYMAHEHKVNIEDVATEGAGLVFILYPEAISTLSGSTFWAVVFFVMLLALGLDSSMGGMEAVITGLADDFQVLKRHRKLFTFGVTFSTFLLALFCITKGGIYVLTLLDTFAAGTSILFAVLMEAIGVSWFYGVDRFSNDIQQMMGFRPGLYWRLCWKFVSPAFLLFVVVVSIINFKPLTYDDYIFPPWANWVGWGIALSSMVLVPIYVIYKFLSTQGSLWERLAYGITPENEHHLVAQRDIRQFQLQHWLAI
T1 sequence (P43681 29-627 limits assumed): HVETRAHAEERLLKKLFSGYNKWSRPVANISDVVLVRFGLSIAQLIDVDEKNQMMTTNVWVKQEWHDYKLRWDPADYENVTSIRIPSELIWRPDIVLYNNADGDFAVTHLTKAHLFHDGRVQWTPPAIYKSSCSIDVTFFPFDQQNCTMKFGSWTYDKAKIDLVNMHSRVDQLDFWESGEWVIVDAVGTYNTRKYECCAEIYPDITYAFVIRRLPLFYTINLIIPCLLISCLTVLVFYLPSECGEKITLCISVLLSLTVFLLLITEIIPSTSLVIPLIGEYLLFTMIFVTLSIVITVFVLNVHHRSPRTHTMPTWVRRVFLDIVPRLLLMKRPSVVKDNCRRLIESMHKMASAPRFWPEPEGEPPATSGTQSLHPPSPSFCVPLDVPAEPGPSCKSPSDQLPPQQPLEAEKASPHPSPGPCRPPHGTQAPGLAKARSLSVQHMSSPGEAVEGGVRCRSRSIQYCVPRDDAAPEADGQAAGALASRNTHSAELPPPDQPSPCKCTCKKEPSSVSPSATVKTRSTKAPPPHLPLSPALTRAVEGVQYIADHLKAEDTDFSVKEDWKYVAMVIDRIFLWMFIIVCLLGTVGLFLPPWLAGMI
T1 sequence (P30926 22-498): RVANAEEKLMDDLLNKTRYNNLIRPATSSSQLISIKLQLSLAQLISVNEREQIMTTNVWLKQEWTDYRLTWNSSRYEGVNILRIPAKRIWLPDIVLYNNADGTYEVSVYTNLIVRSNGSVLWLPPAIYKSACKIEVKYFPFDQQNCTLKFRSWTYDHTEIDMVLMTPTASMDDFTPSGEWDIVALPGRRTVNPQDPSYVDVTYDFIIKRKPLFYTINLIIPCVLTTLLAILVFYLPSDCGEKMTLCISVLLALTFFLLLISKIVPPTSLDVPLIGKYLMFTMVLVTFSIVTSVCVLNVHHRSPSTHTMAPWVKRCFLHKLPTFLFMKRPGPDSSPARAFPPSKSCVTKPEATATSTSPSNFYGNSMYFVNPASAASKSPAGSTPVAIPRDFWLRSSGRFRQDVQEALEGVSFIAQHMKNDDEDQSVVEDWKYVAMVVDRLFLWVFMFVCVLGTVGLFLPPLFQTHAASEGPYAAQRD
T5 sequence (P43681 29-627 limits assumed): as the sequence (P43681 29-627 limits assumed) above
T5 sequence (P17787 26-502): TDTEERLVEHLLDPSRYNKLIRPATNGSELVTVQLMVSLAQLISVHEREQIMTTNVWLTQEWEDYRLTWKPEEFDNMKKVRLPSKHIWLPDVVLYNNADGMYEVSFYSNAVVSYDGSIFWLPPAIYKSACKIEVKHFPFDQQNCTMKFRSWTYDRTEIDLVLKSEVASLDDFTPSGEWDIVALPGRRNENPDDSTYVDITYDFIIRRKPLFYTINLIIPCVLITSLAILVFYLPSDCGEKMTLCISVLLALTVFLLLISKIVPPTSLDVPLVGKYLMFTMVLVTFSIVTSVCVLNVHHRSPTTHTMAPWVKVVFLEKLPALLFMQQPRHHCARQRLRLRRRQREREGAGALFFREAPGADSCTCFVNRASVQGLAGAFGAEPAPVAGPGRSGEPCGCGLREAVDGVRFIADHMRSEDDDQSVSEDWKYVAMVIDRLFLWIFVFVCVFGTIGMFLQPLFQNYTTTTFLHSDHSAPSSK
T3 sequence (P02708 21-457): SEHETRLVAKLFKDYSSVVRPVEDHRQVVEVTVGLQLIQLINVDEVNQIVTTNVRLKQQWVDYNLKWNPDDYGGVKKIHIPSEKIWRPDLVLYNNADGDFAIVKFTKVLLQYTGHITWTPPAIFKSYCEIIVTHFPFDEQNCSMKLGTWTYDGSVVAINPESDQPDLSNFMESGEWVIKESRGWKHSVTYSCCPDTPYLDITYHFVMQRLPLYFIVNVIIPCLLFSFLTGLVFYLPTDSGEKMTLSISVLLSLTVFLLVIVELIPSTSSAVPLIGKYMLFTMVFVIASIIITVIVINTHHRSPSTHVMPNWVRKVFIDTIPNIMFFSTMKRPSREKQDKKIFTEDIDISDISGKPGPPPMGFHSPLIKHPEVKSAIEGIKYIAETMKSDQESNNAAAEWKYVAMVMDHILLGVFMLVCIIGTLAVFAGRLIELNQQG
T3 sequence (P11230 24-501): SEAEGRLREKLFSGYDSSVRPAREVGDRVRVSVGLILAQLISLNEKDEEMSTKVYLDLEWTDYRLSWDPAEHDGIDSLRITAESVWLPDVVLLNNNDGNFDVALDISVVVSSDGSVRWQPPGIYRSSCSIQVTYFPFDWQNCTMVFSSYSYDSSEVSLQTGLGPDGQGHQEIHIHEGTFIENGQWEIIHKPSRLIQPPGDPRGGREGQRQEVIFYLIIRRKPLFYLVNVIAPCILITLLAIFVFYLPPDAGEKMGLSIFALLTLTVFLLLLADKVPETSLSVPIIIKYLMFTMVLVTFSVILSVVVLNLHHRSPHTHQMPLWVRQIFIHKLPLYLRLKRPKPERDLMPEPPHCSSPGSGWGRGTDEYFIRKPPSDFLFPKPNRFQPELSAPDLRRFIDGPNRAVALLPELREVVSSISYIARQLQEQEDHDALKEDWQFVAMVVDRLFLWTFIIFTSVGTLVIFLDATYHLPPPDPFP
T3 sequence (P07510 23-517): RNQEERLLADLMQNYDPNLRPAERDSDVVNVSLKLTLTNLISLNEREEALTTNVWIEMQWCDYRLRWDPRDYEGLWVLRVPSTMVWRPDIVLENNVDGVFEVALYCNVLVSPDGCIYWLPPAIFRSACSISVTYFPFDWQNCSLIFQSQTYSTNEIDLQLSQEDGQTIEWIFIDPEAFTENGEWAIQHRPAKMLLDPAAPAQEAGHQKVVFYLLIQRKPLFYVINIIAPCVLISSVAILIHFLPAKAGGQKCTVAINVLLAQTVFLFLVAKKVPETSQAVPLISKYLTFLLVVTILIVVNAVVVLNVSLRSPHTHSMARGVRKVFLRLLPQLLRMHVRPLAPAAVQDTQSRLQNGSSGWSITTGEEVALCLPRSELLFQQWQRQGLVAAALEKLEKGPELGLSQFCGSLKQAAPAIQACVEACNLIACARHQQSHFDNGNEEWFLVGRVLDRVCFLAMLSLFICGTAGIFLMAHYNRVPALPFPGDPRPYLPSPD
T3 sequence (Q07001 22-517): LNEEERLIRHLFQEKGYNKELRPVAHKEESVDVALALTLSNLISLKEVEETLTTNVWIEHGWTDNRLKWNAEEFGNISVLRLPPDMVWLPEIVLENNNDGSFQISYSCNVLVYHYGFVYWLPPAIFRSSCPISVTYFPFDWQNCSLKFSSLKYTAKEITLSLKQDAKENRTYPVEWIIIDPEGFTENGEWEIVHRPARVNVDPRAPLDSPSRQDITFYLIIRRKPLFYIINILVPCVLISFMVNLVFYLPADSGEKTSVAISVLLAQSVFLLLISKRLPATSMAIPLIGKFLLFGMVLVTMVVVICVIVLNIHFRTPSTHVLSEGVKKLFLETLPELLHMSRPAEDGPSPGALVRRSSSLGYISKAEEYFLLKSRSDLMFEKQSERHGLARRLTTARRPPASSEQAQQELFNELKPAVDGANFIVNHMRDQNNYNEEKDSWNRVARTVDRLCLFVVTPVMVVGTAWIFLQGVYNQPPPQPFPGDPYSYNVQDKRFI
T6 sequence (Q01959 whole entry): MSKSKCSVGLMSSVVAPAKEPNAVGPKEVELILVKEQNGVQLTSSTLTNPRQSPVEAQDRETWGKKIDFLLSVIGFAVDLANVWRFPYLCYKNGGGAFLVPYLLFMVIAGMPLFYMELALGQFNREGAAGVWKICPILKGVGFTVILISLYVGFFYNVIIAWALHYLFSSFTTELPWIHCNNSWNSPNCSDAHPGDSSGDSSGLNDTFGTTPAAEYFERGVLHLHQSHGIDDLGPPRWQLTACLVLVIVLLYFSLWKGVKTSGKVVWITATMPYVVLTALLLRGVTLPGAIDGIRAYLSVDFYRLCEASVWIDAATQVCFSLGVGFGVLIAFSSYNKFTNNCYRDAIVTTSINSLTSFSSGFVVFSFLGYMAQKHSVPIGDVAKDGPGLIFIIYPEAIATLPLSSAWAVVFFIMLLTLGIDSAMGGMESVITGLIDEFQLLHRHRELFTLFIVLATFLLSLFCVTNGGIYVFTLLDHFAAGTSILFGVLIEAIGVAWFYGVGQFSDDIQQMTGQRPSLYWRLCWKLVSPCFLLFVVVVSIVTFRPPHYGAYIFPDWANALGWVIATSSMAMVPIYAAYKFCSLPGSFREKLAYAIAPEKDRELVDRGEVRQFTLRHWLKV

For `CC1NC(C)(C)COC1(O)c1cccnc1` (racemic) [Compound 5, 3,5,5-Trimethyl-2-(pyridin-3-yl)morpholin-2-ol], which IC50 [1] is on record?
Its IC50 is greater than 100 µM.

And the IC50 [2]?
The IC50 was greater than 10 µM.

What about the IC50 [3] of the same molecule?
Its IC50 is greater than 100 µM.

And the IC50 [4]?
Its IC50 is greater than 10 µM.

What about the IC50 [5] of the same molecule?
The IC50 was greater than 100 µM.

What about the IC50 ([6]; HEK293-hDAT, mean ± standard error of three independent experiments, read-out: monoamine uptake inhibition IC50 [3H]DA) of the same molecule?
Its IC50 is greater than 10 µM.

What does the source list for `C[C@@H]1NC(C)(C)CO[C@@]1(O)c1cccc(Cl)c1` [Compound (2S,3S)-4a, (2S,3S)-2-(3-Chlorophenyl)-3,5,5-trimethylmorpholin-2-ol, reference compound]?
ED50 ([7]; Mus musculus, pretreatment 15 min before nicotine 1.5 mg/kg s.c., read-out: AD50 Locomotion): 0.9 mg/kg; AD50 Locomotion [7]: 0.9 mg/kg; ED50 [8]: 1 mg/kg; AD50 Hot-plate [8]: 1 mg/kg; ED50 [9]: 0.2 mg/kg

What does the source list for `CC(NC(C)(C)C)C(=O)c1cccc(Cl)c1` (racemic) [Compound 2, (±)-2-tert-butylamino-3′-chloropropiophenone, reference compound]?
ED50 [8]: 15 mg/kg; AD50 Hot-plate [8]: 15 mg/kg; ED50 [9]: 1.2 mg/kg; AD50 Tail-flick [9]: 1.2 mg/kg; ED50 ([10]; Mus musculus, 0.5 h, read-out: AD50 Hypothermia): 9.2 mg/kg; AD50 Hypothermia [10]: 9.2 mg/kg

For `C[C@H]1NC(C)(C)CO[C@]1(O)c1cccc(Cl)c1` [Compound (2R,3R)-4a, (2R,3R)-2-(3-Chlorophenyl)-3,5,5-trimethylmorpholin-2-ol, reference compound], which “AD50 Locomotion” value [7] is on record?
Its value is “IA (IA: AD50 > 15 mg/kg)”.

What about the ED50 [8] of the same molecule?
The ED50 was 10.3 mg/kg.

What about the ED50 [9] of the same molecule?
The ED50 was 2.5 mg/kg.

What about the “AD50 Hypothermia” value [10] of the same molecule?
The value was “IA (IA: AD50 > 15 mg/kg)”.

What does the source list for `CCC[C@@H]1NC(C)(C)CO[C@@]1(O)c1cccc(Cl)c1` [Compound 4t, (2S,3S)-2-(3-Chlorophenyl)-5,5-dimethyl-3-propyl-morpholin-2-ol]?
AD50 Locomotion [7]: 4.7 mg/kg; AD50 Hot-plate [8]: IA (IA: AD50 > 15 mg/kg); ED50 [9]: 0.004 mg/kg; AD50 Hypothermia [10]: IA (IA: AD50 > 15 mg/kg)

`CC1NC(C)(C)COC1(O)c1ccccn1` (racemic) [Compound 6, 3,5,5-Trimethyl-2-(pyridin-2-yl)morpholin-2-ol] was tested. Which IC50 [1] did it give?
The IC50 was greater than 100 µM.

What about the IC50 [2] of the same molecule?
The IC50 was 7.95 ± 1.8 µM.

What about the IC50 [3] of the same molecule?
The IC50 was greater than 100 µM.

What about the IC50 ([4]; HEK293-hSERT, mean ± standard error of three independent experiments, read-out: monoamine uptake inhibition IC50 [3H]5HT) of the same molecule?
The IC50 was greater than 10 µM.

What about the IC50 [5] of the same molecule?
Its IC50 is greater than 100 µM.

And the IC50 [6]?
Its IC50 is greater than 10 µM.
